Measured values from patent US11634451B2, “Method for the site-specific enzymatic labelling of nucleic acids in vitro by incorporation of unnatural nucleotides” (The Scripps Research Institute, priority 2013, dated 2023).
Marks after values point to notes of the source that are not given here.

Tests used:
OneTaq polymerase = experiment: PCR-based screen and amplification of DNA containing unnatural base pairs, OneTaq (Example 1); format: biochemical; conditions: for Amplification: -^a = no amplification was detected
Procedure: (§1) The triphosphates of the 6 group were prepared from the previously reported nucleosides (Kubelka, T., Slavetinska, L., Eigner, V. and Hocek, M. Synthesis of 2,6-disubstituted pyridin-3-yl C-2′-deoxyribonucleosides through chemoselective transformations of bromo-chloropyridine C-nucleosides. Org. Biomol. Chem., 11, 4702-4718) according to Ludwig, J. and Eckstein, F. Rapid and efficient synthesis of nucleoside 5′-0-(1-thiotriphosphates), 5′-triphosphates and 2′,3′-cyclophosphorothioates using 2-chloro-4H-1,3,2-benzodioxaphosphorin-4-one. J. Org. Chem., 54, 631-635. The purity of all other triphosphates was confirmed by MALDI-TOF and UV-VIS. Taq and OneTaq DNA polymerases were purchased from New England Biolabs (Ipswich, Mass.). A mixture of dNTPs was purchased from Fermentas (Glen Burnie, Md.). SYBR Green I Nucleic Acid Gel Stain (10,000×) was purchased from Life Technologies (Carlsbad, Calif.). The synthesis of the DNA templates, D8 (Malyshev, D. A., Dhami, K., Quach, H. T., Lavergne, T., Ordoukhanian, P., Torkamani, A. and Romesberg, F. E. Efficient and sequence-independent replication of DNA containing a third base pair establishes a functional six-letter genetic alphabet. Proc. Natl. Acad. Sci. USA, 109, 12005-12010), used for screening rounds 1-5, and D6 (Malyshev, D. A., Seo, Y. J., Ordoukhanian, P. and Romesberg, F. E. PCR with an expanded genetic alphabet. J. Am. Chem. Soc., 131, 14620-14621), used for all other amplifications, was described previously. Sanger sequencing was carried out as described previously (Malyshev, D. A., Dhami, K., Quach, H. T., Lavergne, T., Ordoukhanian, P., Torkamani, A. and Romesberg, F. E. Efficient and sequence-independent replication of DNA containing a third base pair establishes a functional six-letter genetic alphabet. Proc. Natl. Acad. Sci. USA, 109, 12005-12010). Raw Sanger sequencing traces were used to determine the percent retention of the unnatural base pairs, which was converted to fidelity per doubling, as described (Malyshev, D. A., Dhami, K., Quach, H. T., Lavergne, T., Ordoukhanian, P., Torkamani, A. and Romesberg, F. E. Efficient and sequence-independent replication of DNA containing a third base pair establishes a functional six-letter genetic alphabet. Proc. Natl. Acad. Sci. USA, 109, 12005-12010; Malyshev, D. A., Seo, Y. J., Ordoukhanian, P. and Romesberg, F. E. PCR with an expanded genetic alphabet. J. Am. Chem. Soc., 131, 14620-14621).
(§2) All PCR amplifications were performed in a CFX Connect Real-Time PCR Detection System (Bio-Rad), in a total volume of 25 μL using the following conditions: 1× OneTaq reaction buffer, 0.5× Sybr Green I, MgSO4 adjusted to 4.0 mM, 0.2 mM of each dNTP, 50 μM of each unnatural triphosphate, […] of Primer1 and Primer2 (See Table 2), and 0.02 U/μl of the DNA polymerase. Other conditions specific for each round of screening are described in Table 3. Amplified products were purified using DNA Clean and Concentrator-5 spin columns from Zymo Research (Irvine, Calif.). After purification, the PCR products were sequenced on a 3730 DNA Analyzer (Applied Biosystems) to determine the retention of the unnatural base pair as described below. Fidelity was characterized from unnatural base pair (UBP) retention as determined by sequencing with Primer1 on a 3730 DNA Analyzer (Applied Biosystems).
(§3) Specific PCR assay conditions. PCR with the most promising UBPs was carried out with the conditions as described in Table 3. PCR products were further purified on […] gels, followed by single band excision and subsequent clean up using the Zymo Research Zymoclean Gel DNA Recovery Kit. After elution with 20 μl of water, the DNA concentration was measured using fluorescent dye binding (Quant-iT dsDNA HS Assay kit, Life Technologies), and purified amplicons were sequenced in triplicate with both Primer1 and Primer2 to determine UBP retention and thus amplification fidelity. […]

Taq polymerase = target: T1, Taq polymerase (Thermus aquaticus, UniProt P19821); experiment: PCR-based screen and amplification of DNA containing unnatural base pairs, Taq (Example 1); format: biochemical; conditions: ^a 100 pg D8 template, 16 cycles, Taq polymerase, 68° C. for 60 s
T1 construct: purchased New England Biolabs (Ipswich, Mass.)
Procedure: as §1, §2, §3

[1] = ^b 10 pg D6 template, 24 cycles, OneTaq polymerase, 68° C. for 10 s
[2] = OneTaq, 16 cycles, 1 min extension

T1 sequence (P19821 whole entry): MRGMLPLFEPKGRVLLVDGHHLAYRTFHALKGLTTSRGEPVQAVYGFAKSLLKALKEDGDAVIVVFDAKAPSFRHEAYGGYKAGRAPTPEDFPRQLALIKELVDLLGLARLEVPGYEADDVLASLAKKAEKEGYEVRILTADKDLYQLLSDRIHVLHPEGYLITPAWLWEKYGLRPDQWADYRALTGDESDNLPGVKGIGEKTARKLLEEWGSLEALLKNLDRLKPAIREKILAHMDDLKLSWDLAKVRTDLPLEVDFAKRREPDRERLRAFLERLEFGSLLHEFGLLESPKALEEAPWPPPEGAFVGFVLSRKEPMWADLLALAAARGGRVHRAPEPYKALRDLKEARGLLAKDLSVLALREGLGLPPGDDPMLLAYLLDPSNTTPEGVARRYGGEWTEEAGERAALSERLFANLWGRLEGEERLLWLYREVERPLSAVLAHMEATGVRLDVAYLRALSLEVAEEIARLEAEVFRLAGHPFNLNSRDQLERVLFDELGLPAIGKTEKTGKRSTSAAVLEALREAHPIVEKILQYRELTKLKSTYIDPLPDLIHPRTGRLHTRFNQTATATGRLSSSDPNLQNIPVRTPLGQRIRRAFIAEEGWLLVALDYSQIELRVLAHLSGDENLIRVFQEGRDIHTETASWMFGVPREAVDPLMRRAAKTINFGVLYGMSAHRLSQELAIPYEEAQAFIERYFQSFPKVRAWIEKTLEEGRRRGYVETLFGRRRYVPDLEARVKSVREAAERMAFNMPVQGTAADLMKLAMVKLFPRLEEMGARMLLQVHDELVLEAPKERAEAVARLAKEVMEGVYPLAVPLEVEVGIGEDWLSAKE

| Compound | Retention, % (OneTaq polymerase; [1]) | Fidelity, % (OneTaq polymerase; [2]) | Retention, % (OneTaq polymerase; [2]) | Amplification (OneTaq polymerase; [2]) | also measured |
| --- | --- | --- | --- | --- | --- |
| COc1cc(I)ccc1[C@H]1C[C@H](O)[C@@H](COP(=O)(O)OP(=O)(O)OP(=O)(O)O)O1.O=P(O)(O)OP(=O)(O)OP(=O)(O)OC[C@H]1O[C@@H](n2ccc3ncccc3c2=S)C[C@@H]1O [SNICS-IMO] | 88^b % |  |  |  |  |
| COc1cc2ccccc2cc1[C@H]1C[C@H](O)[C@@H](COP(=O)(O)OP(=O)(O)OP(=O)(O)O)O1.O=P(O)(O)OP(=O)(O)OP(=O)(O)OC[C@H]1O[C@@H](n2ccc3ncccc3c2=S)C[C@@H]1O [SNICS-NaM] |  |  |  |  | Retention, % (Taq polymerase): 90^a % |
| COc1cc(Cl)ccc1[C@H]1C[C@H](O)[C@@H](COP(=O)(O)OP(=O)(O)OP(=O)(O)O)O1.O=P(O)(O)OP(=O)(O)OP(=O)(O)OC[C@H]1O[C@@H](n2ccc3ccsc3c2=S)C[C@@H]1O [TPT3-CIMO] | 90^b % |  |  |  |  |
| COc1ccc([C@H]2C[C@H](O)[C@@H](COP(=O)(O)OP(=O)(O)OP(=O)(O)O)O2)c(OC)c1.O=P(O)(O)OP(=O)(O)OP(=O)(O)OC[C@H]1O[C@@H](n2ccc3ccsc3c2=S)C[C@@H]1O [TPT3-DMO] |  | 98.23 ± 0.23% | 84.02 ± 1.92% | 864 |  |
| COc1cc(C)ccc1[C@H]1C[C@H](O)[C@@H](COP(=O)(O)OP(=O)(O)OP(=O)(O)O)O1.O=P(O)(O)OP(=O)(O)OP(=O)(O)OC[C@H]1O[C@@H](n2ccc3ccsc3c2=S)C[C@@H]1O [TPT3-MMO2] |  | 99.06 ± 0.40% | 90.95 ± 3.63% | 1096 |  |
| CSc1ccc(C2CC(O)C(CO)O2)c(SC)n1.OCC1OC(n2ccc3ccsc3c2=S)CC1O (centres unmarked) [TPT3-TOK576] |  | 98.35 ± 0.14% | 85.20 ± 1.12% | 780 | Retention, % (OneTaq polymerase; OneTaq, 16 cycles, 1 min extension, listed as dTPT3-dTOK576): 85% |
| Cc1ccc([C@H]2C[C@H](O)[C@@H](COP(=O)(O)OP(=O)(O)OP(=O)(O)O)O2)c(Cl)n1.O=P(O)(O)OP(=O)(O)OP(=O)(O)OC[C@H]1O[C@@H](n2ccc3ccsc3c2=S)C[C@@H]1O [TPT3-TOK580] |  | <85 ^b % | <50 ^b % | 1056 | Retention, % (OneTaq polymerase; OneTaq, 16 cycles, 1 min extension, listed as dTPT3-dTOK580): poorly replicated |
| Cc1ccc([C@H]2C[C@H](O)[C@@H](COP(=O)(O)OP(=O)(O)OP(=O)(O)O)O2)c(N)n1.O=P(O)(O)OP(=O)(O)OP(=O)(O)OC[C@H]1O[C@@H](n2ccc3ccsc3c2=S)C[C@@H]1O [TPT3-TOK586] |  | <85 ^b % | <50 ^b % | 948 | Retention, % (OneTaq polymerase; OneTaq, 16 cycles, 1 min extension, listed as dTPT3-dTOK586): poorly replicated |
| CSc1nc(C)ccc1[C@H]1C[C@H](O)[C@@H](COP(=O)(O)OP(=O)(O)OP(=O)(O)O)O1.O=P(O)(O)OP(=O)(O)OP(=O)(O)OC[C@H]1O[C@@H](n2ccc3ccsc3c2=S)C[C@@H]1O [TPT3-TOK588] |  | 94.99 ± 1.13% | 61.98 ± 7.09% | 666 | Retention, % (OneTaq polymerase; OneTaq, 16 cycles, 1 min extension, listed as dTPT3-dTOK588): 62% |
| COc1cc(N=[N+]=[N-])ccc1[C@H]1C[C@H](O)[C@@H](COP(=O)(O)OP(=O)(O)OP(=O)(O)O)O1.O=P(O)(O)OP(=O)(O)OP(=O)(O)OC[C@H]1O[C@@H](n2ccc3ccsc3c2=S)C[C@@H]1O [TPT3-ZMO] | 86^b % |  |  |  |  |
